SMILES strings stand for the structures. Read-outs that look alike come from different tables or passages of the source.

One data set relates to DU145 cells. As to the kind of experiment: Cell growth assay in parental DU145 cells. The data set is classed as cell-based. The following applies: Homo sapiens, DU-145, read-out: IC50 to docetaxel, 24 hrs. The protocol: (§1) Top panel, fluorescent and phase contrast pictures are shown. Lower panel, rhodamine intake ratio. […] Cell numbers were counted after 24 hrs of treatment. […] Cell numbers were counted after 24 hrs of treatment. […] Tumor sizes were measured twice a week.
(§2) Cells were seeded in 12-well plates at a density of 1×10^5 cells per well. Cells were treated and total cell numbers were counted using a Coulter cell counter.

Another data set has as its system C4-2B tumors. As to the kind of experiment: In vivo tumorigenesis assay, C4-2B tumors. The following applies: docetaxel 10 mg/kg once a week. More on the design: species or system SCID mice. The protocol:
(§3) Tumor sizes were measured twice a week. *, P<0.05. **, P<0.01. DTX, docetaxel, Bic, bicalutamide.
(§4) Tumor tissues were harvested after 3 weeks of treatment.

The next data set deals with TaxR tumors. As to the kind of experiment: In vivo tumorigenesis assay, TaxR tumors. On the set-up: species or system SCID mice. The settings on record: docetaxel 10 mg/kg i.p. once a week; bicalutamide 25 mg/kg p.o. 5 days a week; 3 weeks. The protocol:
as §3, §4

For the next data set, the system named is DU145-DTXR cells. As to the kind of experiment: Cell growth assay in DU145-DTXR cells. The data set is classed as cell-based. The settings on record: for IC50: 24 h; for docetaxel resistance in DU145-DTXR cells: 10 nM docetaxel with 0.5 μM elacridar or 20 μM bicalutamide or enzalutamide, 48 hrs. The protocol:
as §1
DU145-DTXR cells were plated in 12-well plate at 1×10^5 cells per well. […] FIG. 8A: Cell numbers were counted. FIG. 8B: Cell pictures were taken to show the cell survival inhibition.
DU145-DTXR cells were plated in 12-well plate at 1×10^5 cells per well. […] Cell numbers were counted (top panel: bicalutamide; bottom panel: enzalutamide). FIG. 9B: DU145 parental cells and DU145-DTX cells were plated in 12-well plate at 1×10^5 cells per well. […] Cell numbers were counted.
as §2

The test system of the next data set is TaxR cells. As to the kind of experiment: Cell growth assay in TaxR cells. The data set is classed as cell-based. The following applies: 24 h, read-out: IC50 value of docetaxel, TaxR cells. The method, then: Top panel, fluorescent and phase contrast pictures are shown. Lower panel, rhodamine intake ratio. […] Cell numbers were counted after 24 hrs of treatment.
Fluorescent and phase contrast pictures are shown. Lower panel is the rhodamine intake ratio. […] Cell numbers were counted after 24 hrs of treatment. […] The numbers of colonies were counted after 3 weeks.
as §2

A further data set deals with ABCB1 (P-gp) ATPase (Homo sapiens, UniProt P08183). Briefly: in vitro.
Sequence of ABCB1 (P-gp) ATPase (P08183 whole entry): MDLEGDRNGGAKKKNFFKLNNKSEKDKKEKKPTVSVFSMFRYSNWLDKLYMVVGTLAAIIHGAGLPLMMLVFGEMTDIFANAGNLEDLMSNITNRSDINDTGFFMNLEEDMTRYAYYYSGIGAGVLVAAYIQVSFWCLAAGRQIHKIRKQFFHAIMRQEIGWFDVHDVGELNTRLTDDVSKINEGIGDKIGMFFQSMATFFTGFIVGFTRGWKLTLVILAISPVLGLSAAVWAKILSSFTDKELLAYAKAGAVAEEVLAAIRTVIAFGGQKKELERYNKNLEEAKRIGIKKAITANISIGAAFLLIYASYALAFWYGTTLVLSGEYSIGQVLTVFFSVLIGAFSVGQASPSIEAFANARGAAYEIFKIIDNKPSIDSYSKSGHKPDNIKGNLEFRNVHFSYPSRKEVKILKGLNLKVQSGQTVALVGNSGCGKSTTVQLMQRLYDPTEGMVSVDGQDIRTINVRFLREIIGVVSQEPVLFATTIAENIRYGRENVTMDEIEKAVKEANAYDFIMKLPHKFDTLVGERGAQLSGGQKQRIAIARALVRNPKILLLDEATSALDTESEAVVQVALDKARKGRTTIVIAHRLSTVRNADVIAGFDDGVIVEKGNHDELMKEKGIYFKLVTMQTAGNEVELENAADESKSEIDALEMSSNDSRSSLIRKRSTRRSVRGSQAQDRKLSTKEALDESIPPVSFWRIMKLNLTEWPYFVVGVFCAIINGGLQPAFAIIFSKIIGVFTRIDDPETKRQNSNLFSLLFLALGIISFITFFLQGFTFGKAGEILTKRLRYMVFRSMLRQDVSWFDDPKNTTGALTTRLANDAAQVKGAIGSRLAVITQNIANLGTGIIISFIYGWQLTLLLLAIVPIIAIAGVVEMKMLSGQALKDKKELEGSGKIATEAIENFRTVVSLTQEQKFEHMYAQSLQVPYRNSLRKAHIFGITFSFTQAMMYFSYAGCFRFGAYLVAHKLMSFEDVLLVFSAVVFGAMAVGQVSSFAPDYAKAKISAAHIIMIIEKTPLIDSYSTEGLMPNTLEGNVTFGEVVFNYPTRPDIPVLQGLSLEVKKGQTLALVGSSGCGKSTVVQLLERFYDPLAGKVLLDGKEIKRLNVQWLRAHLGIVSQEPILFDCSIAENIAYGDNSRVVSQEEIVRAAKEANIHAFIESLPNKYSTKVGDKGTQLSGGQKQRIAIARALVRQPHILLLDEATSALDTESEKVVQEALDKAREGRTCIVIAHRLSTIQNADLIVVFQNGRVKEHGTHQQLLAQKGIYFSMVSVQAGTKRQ
The target of a further data set is ABCB1 (Homo sapiens, UniProt P08183). The following applies: 48 h, 20 μmol/L.
Sequence of ABCB1 (P08183 whole entry): as above
Data set [1] addresses ABCB1 (P-glycoprotein, MDR1) (Homo sapiens, UniProt P08183). As to the kind of experiment: in vitro.
Protocol: FIG. 1A: C4-2B and TaxR cells were seeded in 6-well plates at a density of 2×10^5 cells per well. […] Cells were incubated with 1 μg/mL Rhodamine 123 for another 4 hrs. The cells were then washed 3 times with 1×PBS. Fluorescence was detected at an excitation wavelength of 480 nm and an emission wavelength of 534 nm. […] Lower panel, rhodamine intake ratio.
Cells were incubated with 1 μg/mL Rhodamine 123 for another 4 hrs. The cells were then washed three times with 1×PBS. Fluorescence was detected at an excitation wavelength of 480 nm and an emission wavelength of 534 nm. […] Lower panel is the rhodamine intake ratio.
Cells were seeded in 6-well plates at a density of 2×10^5 cells per well. […] The cells were then washed three times with PBS. […] Each experiment was repeated at least 3 times.

Sequence of ABCB1 (P-glycoprotein, MDR1) (P08183 whole entry): as above

As usually defined, the IC50 is the concentration needed to halve the response being measured. Turning to `CC(=O)O[C@@]12CO[C@@H]1C[C@H](O)[C@@]1(C)C(=O)[C@H](O)C3=C(C)[C@@H](OC(=O)[C@H](O)[C@@H](NC(=O)OC(C)(C)C)c4ccccc4)C[C@@](O)([C@@H](OC(=O)c4ccccc4)[C@H]21)C3(C)C` [docetaxel], the IC50 with DU145 cells is 4.3 nM; with DU145-DTXR cells (read-out: IC50 to docetaxel), 52 nM; with DU145-DTXR cells (read-out: IC50 value of docetaxel) it was roughly 7.5 nM; with TaxR cells (docetaxel alone, 24 hrs), 140 nM; in the data set with TaxR cells (in combination with 20 μM bicalutamide, 24 hrs), roughly 5 nM; with TaxR cells (in combination with 20 μM enzalutamide, 24 hr), roughly 3 nM. Further, the C4-2B tumor growth result with C4-2B tumors was “significantly repressed”. In addition, the “tumor growth of TaxR cells” value in the data set on TaxR tumors is “Neither docetaxel nor bicalutamide treatment alone inhibited tumor growth”. Besides, in the data set on DU145-DTXR cells (10 nM docetaxel, 20 μM bicalutamide, alone or combined, 24 hrs), the “effect on growth of DU145-DTXR cells” value is listed as “only minimal effects”.
As usually defined, the inhibition is the drop in the measured response relative to a control, in per cent. As to `COc1cc2c(cc1OC)CN(CCc1ccc(NC(=O)c3cccc4c(=O)c5cccc(OC)c5[nH]c34)cc1)CC2` [elacridar], the inhibition at 40 min, 2.5 µM against ABCB1 (P-gp) ATPase came to 69%. For the same compound, the “docetaxel resistance in DU145-DTXR cells” value in the data set on DU145-DTXR cells was “reversal of docetaxel resistance”.
Compound `CNC(=O)c1ccc(N2C(=S)N(c3ccc(C#N)c(C(F)(F)F)c3)C(=O)C2(C)C)cc1F` [enzalutamide] showed a rhodamine intake at ABCB1 of 66.2%. Moreover, the inhibition at 40 min, 40 µM against ABCB1 (P-gp) ATPase was determined as 60%. Also, in data set [1], the inhibition at 24 h, 20 μM is roughly 60%. Besides, the “docetaxel resistance in DU145-DTXR cells” value in the data set on DU145-DTXR cells is “reversal of docetaxel resistance”.

The values above are taken from patent publication US20180153850A1, “COMPOSITIONS AND METHODS FOR TREATMENT OF CANCER” (The Regents of the University of California, priority 2015, published 2018).
